Measurements as given in PMC4262670 (Macromolecular bioscience, 2014).

How the values were obtained:
[1] = cited from earlier work; for water solubility of free drugs: medium with 0.5 % (v/v) DMSO used to prevent precipitation, no reference given
[2] = system: A2780 and OVCAR-3 human ovarian cancer cell lines; assay: Single agent in vitro cytotoxicity, WST-8, result stated over both cell lines; format: cell-based; details: A2780 versus OVCAR-3, WST-8
[3] = ref [8]; cited from earlier work
[4] = ref [13]–[15]; cited from earlier work
[5] = clinical investigation; ref [31]; cited from earlier work
[6] = system: non-small cell lung carcinoma (NSCLC); details: ref [59]; cited from earlier work
[7] = system: first recurrence of ovarian cancer; details: added to carboplatin and gemcitabine; ref [56]; cited from earlier work

C=CCNC1=C2C[C@@H](C)C[C@H](OC)[C@H](O)[C@@H](C)/C=C(\C)[C@H](OC(N)=O)[C@@H](OC)/C=C\C=C(/C)C(=O)NC(=CC1=O)C2=O [17-AAG, 17-(allylamino)-17-demethoxygeldanamycin]
water solubility, ref 32 ([1]; ref [32]): poorly water soluble

CO[C@H]1/C=C\C=C(/C)C(=O)NC2=CC(=O)C(NCCCCCCN)=C(C[C@@H](C)C[C@H](OC)[C@H](O)[C@@H](C)/C=C(\C)[C@@H]1OC(N)=O)C2=O [AHGDM, 17-(hexane-1,6-diamine)-17-demethoxygeldanamycin]
differences in susceptibility of cell lines [2]: did not indicate overall trends in differences in the susceptibility | water solubility of free drugs [1]: poor water solubility

CC(=O)O[C@@]12CO[C@@H]1C[C@H](O)[C@@]1(C)C(=O)[C@H](O)C3=C(C)[C@@H](OC(=O)[C@H](O)[C@@H](NC(=O)OC(C)(C)C)c4ccccc4)C[C@@](O)([C@@H](OC(=O)c4ccccc4)[C@H]21)C3(C)C [DOC, docetaxel]
differences in susceptibility of cell lines [2]: did not indicate overall trends in differences in the susceptibility | in vitro cytotoxicity compared to paclitaxel [3]: superior in vitro cytotoxicity | cross resistance with paclitaxel [4]: does not demonstrate complete cross resistance with paclitaxel | water solubility of free drugs [1]: poor water solubility

COC1=C2C[C@@H](C)C[C@H](OC)[C@H](O)[C@@H](C)/C=C(\C)[C@H](OC(N)=O)[C@@H](OC)/C=C\C=C(/C)C(=O)NC(=CC1=O)C2=O [geldanamycin]
hepatotoxicity [5]: significant hepatotoxicity

CC(=O)O[C@H]1C(=O)[C@@]2(C)[C@H]([C@H](OC(=O)c3ccccc3)[C@]3(O)C[C@H](OC(=O)[C@H](O)[C@@H](NC(=O)c4ccccc4)c4ccccc4)C(C)=C1C3(C)C)[C@]1(OC(C)=O)CO[C@@H]1C[C@@H]2O [paclitaxel]
mean survival time [6]: 6.5 weeks

bevacizumab: anti-angiogenic monoclonal antibody against VEGF-A, added to carboplatin and gemcitabine
disease progression and overall survival [7]: greater reduction in risk of disease progression and an improvement in overall survival
